In patent US20260078103A1, “ISOQUINOLONES AS PI3K INHIBITORS” (OnKure, Inc., priority 2022, published 2026):
Read-outs that look alike come from different tables or passages of the source.

Assays:
Format in all cases: cell-based
[1] = system: SKBR3 cells express WT PI3Ka; assay: In vitro cell proliferation, SKBR3 cells (CellTiter-Glo); conditions: inhibition of proliferation
Outline: (§1)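 1,500 cells/well seeded onto pre-stamped 10-pt dilution plates; T47D in RPMI + 10% FBS + insulin 0.2 units/mL, SKBR3 in McCoys 5a + 10% FBS. 72 h, 37 °C, 5% CO2. CTG readout. 0% = 0.1% DMSO, 100% = 10 uM Alpelisib; sigmoidal fit gives EC50.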

[2] = system: phosphorylation of AKT (pAKT) in SKBR3 cells express WT PI3Ka; assay: In vitro cell pAKT (Ser473) HTRF, SKBR3 cells; conditions: cellular pAKT
Outline: (§2)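 T47D cells (RPMI, 10% FBS, 0.2 units/mL insulin) or SKBR3 cells (McCoy's 5a, 10% FBS) were seeded onto 10-point compound dilutions and incubated 6 h at 37 °C. After lysis, pAKT was detected overnight by HTRF (Eu cryptate/d2). IC50 was fitted from % inhibition relative to 0.1% DMSO and 10 uM alpelisib controls.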

[3] = system: phosphorylation of AKT (pAKT) in T47D cells expressing mutant PI3Ka (H1047R); assay: In vitro cell pAKT (Ser473) HTRF, T47D cells; conditions: cellular pAKT, T47D cells, mutant PI3Ka (H1047R), 6 hours, read-out: Avg T-47D IC50
Outline: as §2

[4] = system: T47D cells expressing mutant PI3Ka (H1047R); assay: In vitro cell proliferation, T47D cells (CellTiter-Glo); conditions: inhibition of proliferation, read-out: Avg T-47D EC50
Outline: as §1

Row | Structure (SMILES) | EC50 ([1]; Homo sapiens, SK-BR-3, 72 h) | IC50 ([2]; Homo sapiens, SK-BR-3, 6 h) | IC50 ([3]; Homo sapiens, T47D, 6 h) | EC50 ([4]; Homo sapiens, T47D, 72 h) | EC50 ([1]; 72 hours) | IC50 ([2]; 6 hours) | IC50 [3] | EC50 ([4]; 72 hours)
1 | Cc1cc(C(C)Nc2ccc(Cl)nc2C(=O)O)c2cc(N3Cc4ccc(F)cc4C3)n(C)c(=O)c2c1 (stereo not drawn) [Example 71] | > 15000 nM | 2000 to 15000 nM | 1 to 500 nM | 500 to 2000 nM |  |  |  | 
2 | Cc1cc(C(C)Nc2ccccc2C(=O)O)c2cc(N3Cc4cncnc4C3)n(C)c(=O)c2c1 (stereo not drawn) [Example 72] | > 15000 nM | > 15000 nM | 500 to 2000 nM | 2000 to 15000 nM |  |  |  | 
3 | Cc1cc([C@@H](C)Nc2ccccc2C(=O)O)c2cc(N3C[C@H]4CN(CC(F)(F)F)C[C@H]4C3)n(C)c(=O)c2c1 [Example 73] | > 15000 nM | > 15000 nM | 1 to 500 nM | 500 to 2000 nM |  |  |  | 
4 | Cc1ccc(-c2cc3c(C(C)Nc4ccccc4C(=O)O)cc(C)cc3c(=O)n2C)nc1 (stereo not drawn) [Example 74] | > 15000 nM | > 15000 nM | 500 to 2000 nM | 2000 to 15000 nM |  |  |  | 
5 | Cc1cc(C(C)Nc2ccccc2C(=O)O)c2cc(-c3cc4ccc(F)cc4[nH]3)n(C)c(=O)c2c1 (stereo not drawn) [Example 75] | > 15000 nM | > 15000 nM | 1 to 500 nM | 500 to 2000 nM |  |  |  | 
6 | Cc1cc(C(C)Nc2ccccc2C(=O)O)c2cc(N3Cc4cc(F)cc(F)c4C3)n(C)c(=O)c2c1 (stereo not drawn) [Example 84] | > 15000 nM | > 15000 nM | 1 to 500 nM | 500 to 2000 nM |  |  |  | 
7 | Cc1cc(C(C)Nc2ccccc2C(=O)O)c2cc(N3CC4CCC(C4)C3)n(C)c(=O)c2c1 (stereo not drawn) [Example 85] | > 15000 nM | 2000 to 15000 nM | 1 to 500 nM | 1 to 500 nM |  |  |  | 
8 | Cc1cc(C(C)Nc2ccccc2C(=O)O)c2cc(N3CCc4ncncc4C3)n(C)c(=O)c2c1 (stereo not drawn) [Example 86] | > 15000 nM | > 15000 nM | 500 to 2000 nM | 2000 to 15000 nM |  |  |  | 
9 | CC(=O)N1C[C@@H]2CN(c3cc4c(C(C)Nc5ccccc5C(=O)O)cc(C)cc4c(=O)n3C)C[C@H]2C1 (stereo partly drawn) [Example 87] | > 15000 nM | > 15000 nM | 2000 to 15000 nM | 2000 to 15000 nM |  |  |  | 
10 | Cc1cc(C(C)Nc2ccc(Cl)nc2C(=O)O)c2cc(N3CCC(C)(C)CC3)n(C)c(=O)c2c1 (stereo not drawn) [Example 88] | 2000 to 15000 nM | > 15000 nM | 500 to 2000 nM | 500 to 2000 nM |  |  |  | 
11 | Cc1cc(C(C)Nc2ccccc2C(=O)O)c2cc(N3Cc4c(F)c(F)c(F)c(F)c4C3)n(C)c(=O)c2c1 (stereo not drawn) [Example 89] | > 15000 nM | > 15000 nM | 500 to 2000 nM | 2000 to 15000 nM |  |  |  | 
12 | Cc1cc(C(C)Nc2ccccc2C(=O)O)c2cc(N3CCC4(CCN(CC(F)(F)F)CC4)CC3)n(C)c(=O)c2c1 (stereo not drawn) [Example 91] |  |  |  |  | 2000 to 15000 nM | > 15000 nM | 1 to 500 nM | 1 to 500 nM
13 | Cc1cc(C(C)Nc2ccccc2C(=O)O)c2cc(N3CCC4(CCN(CC(F)(F)F)C4)CC3)n(C)c(=O)c2c1 (stereo not drawn) [Example 94] | 2000 to 15000 nM | 2000 to 15000 nM | 1 to 500 nM | 1 to 500 nM |  |  |  | 
14 | COCCC(=O)N1CCN(c2cc3c(C(C)Nc4ccccc4C(=O)O)cc(C)cc3c(=O)n2C)CC1 (stereo not drawn) [Example 95] | > 15000 nM | > 15000 nM | 500 to 2000 nM | 500 to 2000 nM |  |  |  | 
15 | Cc1cc([C@@H](C)Nc2ccccc2C(=O)O)c2cc(N3CC[C@@]4(CCCN(CC(F)(F)F)C4)C3)n(C)c(=O)c2c1 [Example 98] | > 15000 nM | > 15000 nM | 1 to 500 nM | 500 to 2000 nM |  |  |  | 
16 | Cc1cc([C@@H](C)Nc2ccccc2C(=O)O)c2cc(N3CC[C@]4(CCCN(CC(F)(F)F)C4)C3)n(C)c(=O)c2c1 [Example 99] | 2000 to 15000 nM | > 15000 nM | 1 to 500 nM | 1 to 500 nM |  |  |  | 
17 | Cc1cc(C(C)Nc2ccccc2C(=O)O)c2cc(N3CC4CCCC(C4)C3)n(C)c(=O)c2c1 (stereo not drawn) [Example 116] |  |  |  |  | > 15000 nM | > 15000 nM | 500 to 2000 nM | 500 to 2000 nM
18 | Cc1cc([C@@H](C)Nc2ccc(Cl)nc2C(=O)O)c2cc(-c3ccc(C)nc3)n(C)c(=O)c2c1 [Example 130] | 2000 to 15000 nM | 2000 to 15000 nM | 1 to 500 nM | 1 to 500 nM |  |  |  | 
